Experimental data: patent US9783537B2, “3-(4-ethylnylphenyl) pyridopyrimidinone compounds and process for preparation thereof useful as potential anticancer agents” (Council of Scientific & Industrial Research, priority 2013, dated 2017)
Like-named read-outs stand apart in the source and are kept apart here.

Legend:
SNB-19 = assay: SRB 48 h growth assay, CNS SNB-19; format: cell-based, human; details: SNB-19, CNS
[1] = in vitro anticancer activity, melanoma panel; format: cell-based; details: Homo sapiens; nine melanoma cell lines, exposure at least 48 h; read-out: GI50, range over panel
K-562 = assay: SRB 48 h growth assay, Leukemia K-562; format: cell-based, human
RPMI-8226 = assay: SRB 48 h growth assay, Leukemia RPMI-8226; format: cell-based, human; details: RPMI-8226, Leukemia
RXF393 = assay: SRB 48 h growth assay, Renal RXF393; format: cell-based, human
MCF7 = assay: SRB 48 h growth assay, Breast MCF7; format: cell-based, human
OVCAR-4 = assay: SRB 48 h growth assay, Ovarian OVCAR-4; format: cell-based, human; details: OVCAR-4, Ovarian
[2] = test system: seven colon cancer cell line (COLO 205, HCC-2998, HCT-116, HCT-15, HT29, KM12 and SW-620); assay: in vitro anticancer activity, colon panel; format: cell-based; details: Homo sapiens; seven colon cancer cell lines, exposure at least 48 h; read-out: GI50, range over panel
MDA-MB-231/ATCC = assay: SRB 48 h growth assay, Breast MDA-MB-231/ATCC; format: cell-based, human
786-0 = assay: SRB 48 h growth assay, Renal 786-0; format: cell-based, human; details: 786-0, Renal
MDA-MB-468 = assay: SRB 48 h growth assay, Breast MDA-MB-468; format: cell-based, human; details: MDA-MB-468, Breast
[3] = test system: seven ovarian cancer cell lines (IGROV1, OVCAR-3, OVCAR-4, OVCAR-5, OVCAR-8, NCI/ADR-RES and SK-OV-3); assay: in vitro anticancer activity, ovarian panel; format: cell-based; details: Homo sapiens, exposure at least 48 h, read-out: GI50, range over panel
NCI-H522 = assay: SRB 48 h growth assay, Non-small Cell Lung NCI-H522; format: cell-based, human
HL-60(TB) = assay: SRB 48 h growth assay, Leukemia HL-60(TB); format: cell-based, human
OVCAR-8 = assay: SRB 48 h growth assay, Ovarian OVCAR-8; format: cell-based, human; details: OVCAR-8, Ovarian
M14 = assay: SRB 48 h growth assay, Melanoma M14; format: cell-based, human
HS578T = assay: SRB 48 h growth assay, Breast HS578T; format: cell-based, human
HOP-62 = assay: SRB 48 h growth assay, Non-small Cell Lung HOP-62; format: cell-based, human; details: HOP-62, Non-small Cell Lung
SK-MEL-5 = assay: SRB 48 h growth assay, Melanoma SK-MEL-5; format: cell-based, human; details: SK-MEL-5, Melanoma
SW-620 = assay: SRB 48 h growth assay, Colon SW-620; format: cell-based, human; details: Homo sapiens, SW-620, Colon
SK-OV-3 = assay: SRB 48 h growth assay, Ovarian SK-OV-3; format: cell-based, human; details: SK-OV-3, Ovarian
LOX IMVI = assay: SRB 48 h growth assay, Melanoma LOX IMVI; format: cell-based, human
KM12 = assay: SRB 48 h growth assay, Colon KM12; format: cell-based, human
BT-549 = assay: SRB 48 h growth assay, Breast BT-549; format: cell-based, human; details: BT-549, Breast
[4] = in vitro anticancer activity, non-small cell lung panel; format: cell-based; details: Homo sapiens; nine non-small cell lung cancer cell lines, exposure at least 48 h; read-out: GI50, range over panel
TK-10 = assay: SRB 48 h growth assay, Renal TK-10; format: cell-based, human; details: TK-10, Renal
[5] = Homo sapiens, read-out: Growth Inhibition GI50
[6] = Homo sapiens, read-out: Log10 LC50 (converted)
[7] = Homo sapiens, read-out: Log10 GI50 (converted)

## C#Cc1ccc(-n2c(/C=C/c3ccc4ccccc4c3)nc3ncccc3c2=O)cc1 [4s, (E)-3-(4-Ethynylphenyl)-2-(2-(naphthalen-2-yl)vinyl)pyrido[2,3-d]pyrimidin-4(3H)-one]
SNB-19; [5]
  GI50: 2.95 µM
SNB-19; [6]
  CC50: > 100 µM
SNB-19
  Log10 TGI50: >−4.00
[1]
  GI50: 0.19 to 1.21 µM
K-562; Homo sapiens, K562, K-562, Leukemia, read-out: Growth Inhibition GI50
  GI50: 2.43 µM
K-562; Homo sapiens, K562, K-562, Leukemia, read-out: Log10 GI50 (converted)
  GI50: 2.45 µM
K-562; Homo sapiens, K562, K-562, Leukemia, read-out: Log10 LC50 (converted)
  CC50: > 100 µM
K-562; K-562, Leukemia
  Log10 TGI50: ->−4.00
RPMI-8226; [5]
  GI50: 0.45 µM
RPMI-8226; [7]
  GI50: 0.447 µM
RPMI-8226; [6]
  CC50: > 100 µM
RPMI-8226
  Log10 TGI50: >−4.00
RXF393
  Log10 TGI50: −5.26
RXF393; Homo sapiens, RXF 393, read-out: Growth Inhibition GI50
  GI50: 1.79 µM
RXF393; Homo sapiens, RXF 393, read-out: Log10 GI50 (converted)
  GI50: 1.78 µM
RXF393; Homo sapiens, RXF 393, read-out: Log10 LC50 (converted)
  CC50: 5.5 µM
MCF7
  Log10 TGI50: >−4.00
MCF7; [5]
  GI50: 2.43 µM
MCF7; [7]
  GI50: 2.45 µM
MCF7; [6]
  CC50: > 100 µM
OVCAR-4; [5]
  GI50: 1.95 µM
OVCAR-4; [7]
  GI50: 1.95 µM
OVCAR-4; [6]
  CC50: > 100 µM
OVCAR-4
  Log10 TGI50: >−4.00
[2]
  GI50: 0.3 to 0.36 µM
MDA-MB-231/ATCC
  Log10 TGI50: >−4.00
MDA-MB-231/ATCC; [5]
  GI50: 3.74 µM
MDA-MB-231/ATCC; [7]
  GI50: 3.72 µM
MDA-MB-231/ATCC; [6]
  CC50: > 100 µM
786-0
  Log10 TGI50: >−4.00
786-0; [5]
  GI50: 4.08 µM
786-0; [7]
  GI50: 4.07 µM
786-0; [6]
  CC50: > 100 µM
MDA-MB-468; [5]
  GI50: 0.96 µM
MDA-MB-468; [7]
  GI50: 0.955 µM
MDA-MB-468; [6]
  CC50: 7.76 µM
MDA-MB-468
  Log10 TGI50: −5.11
[3]
  GI50: 0.3 to 0.4 µM
NCI-H522
  Log10 TGI50: >−4.00
NCI-H522; [5]
  GI50: 5.11 µM
NCI-H522; [7]
  GI50: 5.13 µM
NCI-H522; [6]
  CC50: > 100 µM
HL-60(TB)
  Log10 TGI50: −5.05
HL-60(TB); [5]
  GI50: 1.66 µM
HL-60(TB); [7]
  GI50: 1.66 µM
HL-60(TB); [6]
  CC50: 8.91 µM
OVCAR-8; [5]
  GI50: 3.05 µM
OVCAR-8; [7]
  GI50: 3.02 µM
OVCAR-8; [6]
  CC50: > 100 µM
OVCAR-8
  Log10 TGI50: >−4.00
M14
  Log10 TGI50: −5.36
M14; [5]
  GI50: 2.07 µM
M14; [7]
  GI50: 2.09 µM
M14; [6]
  CC50: 4.37 µM
HS578T
  Log10 TGI50: >−4.00
HS578T; Homo sapiens, Hs-578T, read-out: Growth Inhibition GI50
  GI50: 7.62 µM
HS578T; Homo sapiens, Hs-578T, read-out: Log10 GI50 (converted)
  GI50: 7.59 µM
HS578T; Homo sapiens, Hs-578T, read-out: Log10 LC50 (converted)
  CC50: > 100 µM
HOP-62
  Log10 TGI50: >−4.00
HOP-62; [5]
  GI50: 7.45 µM
HOP-62; [7]
  GI50: 7.41 µM
HOP-62; [6]
  CC50: > 100 µM
SK-MEL-5; [5]
  GI50: 1.16 µM
SK-MEL-5; [7]
  GI50: 1.15 µM
SK-MEL-5; [6]
  CC50: 2.51 µM
SK-MEL-5
  Log10 TGI50: −5.60
SW-620; read-out: Growth Inhibition GI50
  GI50: 2.22 µM
SW-620; read-out: Log10 GI50 (converted)
  GI50: 2.24 µM
SK-OV-3; [5]
  GI50: 7.55 µM
SK-OV-3; [7]
  GI50: 7.59 µM
SK-OV-3; [6]
  CC50: > 100 µM
SK-OV-3
  Log10 TGI50: >−4.00
LOX IMVI
  Log10 TGI50: −5.51
LOX IMVI; [5]
  GI50: 0.51 µM
LOX IMVI; [7]
  GI50: 0.513 µM
LOX IMVI; [6]
  CC50: 3.09 µM
KM12
  Log10 TGI50: >−4.00
KM12; [5]
  GI50: 2.95 µM
KM12; [7]
  GI50: 2.95 µM
KM12; [6]
  CC50: > 100 µM
BT-549
  Log10 TGI50: −5.26
BT-549; [5]
  GI50: 1.98 µM
BT-549; [7]
  GI50: 2 µM
BT-549; [6]
  CC50: 5.5 µM
[4]
  GI50: 0.18 to 0.7 µM
TK-10; [5]
  GI50: 4.04 µM
TK-10; [7]
  GI50: 4.07 µM
TK-10; [6]
  CC50: > 100 µM
TK-10
  Log10 TGI50: >−4.00
